Measurements as given in paper PMC4823954, “From fighting depression to conquering tumors: a novel tricyclic thiazepine compound as a tubulin polymerization inhibitor” (Cell Death & Disease, 2016).

What was measured:
Assay in all cases: KINOMEscan
Format in all cases: binding
Details in all cases: read-out: % Ctrl
BTK = target: T1, BTK (Homo sapiens, UniProt Q06187)
T1 construct: purchased DiscoveRx KINOMEscan
Procedure: (§1) The binding assay for 442 non-mutant kinases was performed using KINOMEscan (DiscoveRx Corporation, Fremont, CA, USA) as reported previously.[58], [59] TBPT was screened at concentrations of 5 and 10 μM to identify the affected kinases. KINOMEscan is based on a competition reaction that quantitatively measures the ability of a test compound to compete with an active site-directed ligand for binding to the kinase active site. […] After the assay plates were incubated with shaking for 1 h, the liganded beads were washed with washing buffer (1 × PBS and 0.05% Tween 20). Then, the beads were re-suspended in elution buffer (1 × PBS, 0.05% Tween 20, and 0.5 μM ligand) and incubated with shaking for 30 min. The kinase concentration in the eluates was measured via qPCR. The results are represented as ‘%Ctrl', which was calculated using the following formula: (test compound signal–positive control signal)/(DMSO signal–positive control signal) × 100%. A lower % Ctrl indicates stronger binding to the kinase active site.

CAMK2B = target: T2, CAMK2B (Homo sapiens, UniProt Q13554)
T2 construct: purchased DiscoveRx KINOMEscan
Procedure: as §1

CDC2L5 = target: T3, CDC2L5 (Homo sapiens, UniProt Q14004)
T3 construct: purchased DiscoveRx KINOMEscan
Procedure: as §1

CDK4-cyclinD3 = target: T4, CDK4-cyclinD3 (Homo sapiens, UniProt P11802)
T4 construct: purchased DiscoveRx KINOMEscan
Procedure: as §1

CSF1R = target: T5, CSF1R (Homo sapiens, UniProt P07333)
T5 construct: purchased DiscoveRx KINOMEscan
Procedure: as §1

CSK = target: T6, CSK (Homo sapiens, UniProt P41240)
T6 construct: purchased DiscoveRx KINOMEscan
Procedure: as §1

CSNK2A2 = target: T7, CSNK2A2 (Homo sapiens, UniProt P19784)
T7 construct: purchased DiscoveRx KINOMEscan
Procedure: as §1

DDR2 = target: T8, DDR2 (Homo sapiens, UniProt Q16832)
T8 construct: purchased DiscoveRx KINOMEscan
Procedure: as §1

ERK1 = target: T9, ERK1 (Homo sapiens, UniProt P27361)
T9 construct: purchased DiscoveRx KINOMEscan
T9 sequence (P27361 whole entry): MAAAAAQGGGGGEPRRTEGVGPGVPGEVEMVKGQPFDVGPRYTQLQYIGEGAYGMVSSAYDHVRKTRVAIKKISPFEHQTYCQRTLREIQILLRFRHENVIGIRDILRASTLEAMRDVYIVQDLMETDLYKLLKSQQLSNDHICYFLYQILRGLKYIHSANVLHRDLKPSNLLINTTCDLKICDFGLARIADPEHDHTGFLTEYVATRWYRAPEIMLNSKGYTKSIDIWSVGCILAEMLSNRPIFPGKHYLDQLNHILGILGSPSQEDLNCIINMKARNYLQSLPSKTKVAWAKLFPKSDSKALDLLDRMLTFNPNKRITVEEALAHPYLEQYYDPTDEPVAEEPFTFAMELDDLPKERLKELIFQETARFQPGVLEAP
Procedure: as §1

FAK = target: T10, FAK (Homo sapiens, UniProt Q05397)
T10 construct: purchased DiscoveRx KINOMEscan
Procedure: as §1

FGFR2 = target: T11, FGFR2 (Homo sapiens, UniProt P21802)
T11 construct: purchased DiscoveRx KINOMEscan
T11 sequence (P21802 22-821): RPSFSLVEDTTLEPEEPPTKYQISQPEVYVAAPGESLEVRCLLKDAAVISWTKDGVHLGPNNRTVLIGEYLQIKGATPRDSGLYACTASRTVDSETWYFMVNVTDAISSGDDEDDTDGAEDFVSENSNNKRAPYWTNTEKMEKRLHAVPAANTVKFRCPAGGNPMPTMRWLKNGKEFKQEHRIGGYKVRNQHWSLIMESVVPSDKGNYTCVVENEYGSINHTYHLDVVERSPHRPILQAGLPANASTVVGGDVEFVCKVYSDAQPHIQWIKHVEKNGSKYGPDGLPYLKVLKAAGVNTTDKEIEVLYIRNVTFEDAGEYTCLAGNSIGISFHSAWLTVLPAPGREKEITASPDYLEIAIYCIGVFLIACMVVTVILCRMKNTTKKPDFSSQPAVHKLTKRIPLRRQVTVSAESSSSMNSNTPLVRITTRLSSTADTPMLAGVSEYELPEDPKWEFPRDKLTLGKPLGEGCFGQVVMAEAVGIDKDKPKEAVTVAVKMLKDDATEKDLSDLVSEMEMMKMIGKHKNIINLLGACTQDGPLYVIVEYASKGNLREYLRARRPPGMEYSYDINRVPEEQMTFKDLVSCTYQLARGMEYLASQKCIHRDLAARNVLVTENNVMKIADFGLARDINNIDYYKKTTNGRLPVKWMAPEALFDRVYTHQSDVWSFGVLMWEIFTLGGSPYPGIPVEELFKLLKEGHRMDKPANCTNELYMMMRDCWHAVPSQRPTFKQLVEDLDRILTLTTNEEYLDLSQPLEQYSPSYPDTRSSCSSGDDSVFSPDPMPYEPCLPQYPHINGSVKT
Procedure: as §1

HIPK4 = target: T12, HIPK4 (Homo sapiens, UniProt Q8NE63)
T12 construct: purchased DiscoveRx KINOMEscan
Procedure: as §1

HPK1 = target: T13, HPK1 (Homo sapiens, UniProt Q92918)
T13 construct: purchased DiscoveRx KINOMEscan
Procedure: as §1

ICK = target: T14, ICK (Homo sapiens, UniProt Q9UPZ9)
T14 construct: purchased DiscoveRx KINOMEscan
Procedure: as §1

MAP4K3 = target: T15, MAP4K3 (Homo sapiens, UniProt Q8IVH8)
T15 construct: purchased DiscoveRx KINOMEscan
T15 sequence (Q8IVH8 whole entry): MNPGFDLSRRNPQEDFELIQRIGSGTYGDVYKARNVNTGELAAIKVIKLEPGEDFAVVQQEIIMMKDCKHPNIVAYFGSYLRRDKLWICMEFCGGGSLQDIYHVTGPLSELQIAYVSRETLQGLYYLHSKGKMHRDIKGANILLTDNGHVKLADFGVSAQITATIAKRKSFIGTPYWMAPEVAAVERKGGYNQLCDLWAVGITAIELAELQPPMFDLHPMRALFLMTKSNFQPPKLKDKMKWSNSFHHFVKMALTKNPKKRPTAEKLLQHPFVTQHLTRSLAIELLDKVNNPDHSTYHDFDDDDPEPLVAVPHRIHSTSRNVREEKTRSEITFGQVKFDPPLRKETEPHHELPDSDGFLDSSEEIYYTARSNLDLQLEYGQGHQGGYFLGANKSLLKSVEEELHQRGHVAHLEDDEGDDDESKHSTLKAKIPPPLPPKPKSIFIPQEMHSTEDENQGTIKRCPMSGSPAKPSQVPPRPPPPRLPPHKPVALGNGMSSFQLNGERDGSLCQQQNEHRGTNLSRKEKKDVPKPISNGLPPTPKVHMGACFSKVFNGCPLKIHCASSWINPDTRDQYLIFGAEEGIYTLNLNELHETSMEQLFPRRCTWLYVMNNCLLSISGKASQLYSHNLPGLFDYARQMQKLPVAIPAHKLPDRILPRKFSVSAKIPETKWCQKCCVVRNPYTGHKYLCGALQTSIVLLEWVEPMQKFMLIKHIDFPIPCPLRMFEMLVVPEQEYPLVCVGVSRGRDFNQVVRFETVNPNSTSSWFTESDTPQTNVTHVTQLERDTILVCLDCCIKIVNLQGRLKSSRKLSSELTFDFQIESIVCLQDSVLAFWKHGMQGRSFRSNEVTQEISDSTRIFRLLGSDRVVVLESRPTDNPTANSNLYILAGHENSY
Procedure: as §1

MEK3 = target: T16, MEK3 (Homo sapiens, UniProt P46734)
T16 construct: purchased DiscoveRx KINOMEscan
T16 sequence (P46734 whole entry): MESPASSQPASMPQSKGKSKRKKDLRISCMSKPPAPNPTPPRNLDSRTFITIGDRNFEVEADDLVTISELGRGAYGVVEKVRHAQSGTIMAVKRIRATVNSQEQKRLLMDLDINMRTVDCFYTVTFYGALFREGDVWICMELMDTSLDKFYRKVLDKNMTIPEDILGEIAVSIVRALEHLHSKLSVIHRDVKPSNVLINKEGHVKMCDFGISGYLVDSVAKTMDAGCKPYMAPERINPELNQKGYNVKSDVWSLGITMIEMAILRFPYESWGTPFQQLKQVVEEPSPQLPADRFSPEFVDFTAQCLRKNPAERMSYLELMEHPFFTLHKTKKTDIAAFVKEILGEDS
Procedure: as §1

MET(Y1235D) = target: T17, MET(Y1235D) (Homo sapiens, UniProt P08581, Y1235D)
T17 construct: purchased DiscoveRx KINOMEscan
Procedure: as §1

MKK7 = target: T18, MKK7 (Homo sapiens, UniProt O14733)
T18 construct: purchased DiscoveRx KINOMEscan
Procedure: as §1

MKNK2 = target: T19, MKNK2 (Homo sapiens, UniProt Q9HBH9)
T19 construct: purchased DiscoveRx KINOMEscan
T19 sequence (Q9HBH9 whole entry): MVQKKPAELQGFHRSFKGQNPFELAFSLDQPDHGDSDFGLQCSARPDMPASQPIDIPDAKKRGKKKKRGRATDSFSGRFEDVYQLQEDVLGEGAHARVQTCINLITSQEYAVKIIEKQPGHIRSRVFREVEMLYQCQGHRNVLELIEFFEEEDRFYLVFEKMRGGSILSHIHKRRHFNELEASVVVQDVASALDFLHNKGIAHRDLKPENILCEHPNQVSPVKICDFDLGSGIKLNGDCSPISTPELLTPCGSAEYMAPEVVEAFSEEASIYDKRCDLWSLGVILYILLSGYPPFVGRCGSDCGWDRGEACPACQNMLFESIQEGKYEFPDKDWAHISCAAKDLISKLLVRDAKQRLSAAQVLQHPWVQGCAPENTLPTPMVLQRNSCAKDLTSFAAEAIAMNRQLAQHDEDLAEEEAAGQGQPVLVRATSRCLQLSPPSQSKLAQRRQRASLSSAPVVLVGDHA
Procedure: as §1

MLK2 = target: T20, MLK2 (Homo sapiens, UniProt Q02779)
T20 construct: purchased DiscoveRx KINOMEscan
Procedure: as §1

MTOR = target: T21, MTOR (Homo sapiens, UniProt P42345)
T21 construct: purchased DiscoveRx KINOMEscan
Procedure: as §1

MYO3A = target: T22, MYO3A (Homo sapiens, UniProt Q8NEV4)
T22 construct: purchased DiscoveRx KINOMEscan
Procedure: as §1

NEK5 = target: T23, NEK5 (Homo sapiens, UniProt Q6P3R8)
T23 construct: purchased DiscoveRx KINOMEscan
T23 sequence (Q6P3R8 whole entry): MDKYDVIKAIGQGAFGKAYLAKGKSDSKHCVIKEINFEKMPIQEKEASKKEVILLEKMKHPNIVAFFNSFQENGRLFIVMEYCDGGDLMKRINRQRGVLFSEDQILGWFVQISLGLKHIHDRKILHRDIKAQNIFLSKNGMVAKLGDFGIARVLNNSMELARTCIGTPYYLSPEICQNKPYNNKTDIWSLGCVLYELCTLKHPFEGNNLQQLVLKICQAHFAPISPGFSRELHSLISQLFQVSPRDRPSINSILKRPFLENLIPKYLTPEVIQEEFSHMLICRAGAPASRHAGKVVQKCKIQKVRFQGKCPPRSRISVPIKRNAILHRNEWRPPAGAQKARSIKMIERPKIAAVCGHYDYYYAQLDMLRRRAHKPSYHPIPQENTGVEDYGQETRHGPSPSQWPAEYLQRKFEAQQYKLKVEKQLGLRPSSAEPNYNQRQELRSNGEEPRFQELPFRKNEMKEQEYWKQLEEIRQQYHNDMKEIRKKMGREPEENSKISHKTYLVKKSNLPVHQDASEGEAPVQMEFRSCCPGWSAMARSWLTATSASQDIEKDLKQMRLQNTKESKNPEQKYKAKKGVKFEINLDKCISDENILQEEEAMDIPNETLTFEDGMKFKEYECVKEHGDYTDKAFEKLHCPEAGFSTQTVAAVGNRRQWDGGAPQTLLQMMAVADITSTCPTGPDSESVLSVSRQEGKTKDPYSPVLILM
Procedure: as §1

NIM1 = target: T24, NIM1 (Homo sapiens, UniProt Q8IY84)
T24 construct: purchased DiscoveRx KINOMEscan
T24 sequence (Q8IY84 whole entry): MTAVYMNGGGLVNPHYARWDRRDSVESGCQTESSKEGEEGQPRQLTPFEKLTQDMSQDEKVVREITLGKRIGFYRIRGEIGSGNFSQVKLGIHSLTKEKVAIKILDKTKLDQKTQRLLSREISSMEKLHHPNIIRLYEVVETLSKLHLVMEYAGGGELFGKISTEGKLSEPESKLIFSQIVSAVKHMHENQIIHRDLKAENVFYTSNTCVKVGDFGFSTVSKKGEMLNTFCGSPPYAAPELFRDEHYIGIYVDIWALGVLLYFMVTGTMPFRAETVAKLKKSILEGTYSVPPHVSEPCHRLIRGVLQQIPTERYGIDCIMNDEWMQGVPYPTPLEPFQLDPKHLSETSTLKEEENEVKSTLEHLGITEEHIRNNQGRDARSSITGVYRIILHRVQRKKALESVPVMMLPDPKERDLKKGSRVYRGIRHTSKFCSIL
Procedure: as §1

PCTK1 = target: T25, PCTK1 (Homo sapiens, UniProt Q00536)
T25 construct: purchased DiscoveRx KINOMEscan
Procedure: as §1

PIK3CB = target: T26, PIK3CB (Homo sapiens, UniProt P42338)
T26 construct: purchased DiscoveRx KINOMEscan
Procedure: as §1

PKMYT1 = target: T27, PKMYT1 (Homo sapiens, UniProt Q99640)
T27 construct: purchased DiscoveRx KINOMEscan
Procedure: as §1

PRKG1 = target: T28, PRKG1 (Homo sapiens, UniProt Q13976)
T28 construct: purchased DiscoveRx KINOMEscan
Procedure: as §1

RIPK1 = target: T29, RIPK1 (Homo sapiens, UniProt Q13546)
T29 construct: purchased DiscoveRx KINOMEscan
Procedure: as §1

SIK2 = target: T30, SIK2 (Homo sapiens, UniProt Q9H0K1)
T30 construct: purchased DiscoveRx KINOMEscan
Procedure: as §1

SLK = target: T31, SLK (Homo sapiens, UniProt Q9H2G2)
T31 construct: purchased DiscoveRx KINOMEscan
Procedure: as §1

T1 sequence (Q06187 whole entry): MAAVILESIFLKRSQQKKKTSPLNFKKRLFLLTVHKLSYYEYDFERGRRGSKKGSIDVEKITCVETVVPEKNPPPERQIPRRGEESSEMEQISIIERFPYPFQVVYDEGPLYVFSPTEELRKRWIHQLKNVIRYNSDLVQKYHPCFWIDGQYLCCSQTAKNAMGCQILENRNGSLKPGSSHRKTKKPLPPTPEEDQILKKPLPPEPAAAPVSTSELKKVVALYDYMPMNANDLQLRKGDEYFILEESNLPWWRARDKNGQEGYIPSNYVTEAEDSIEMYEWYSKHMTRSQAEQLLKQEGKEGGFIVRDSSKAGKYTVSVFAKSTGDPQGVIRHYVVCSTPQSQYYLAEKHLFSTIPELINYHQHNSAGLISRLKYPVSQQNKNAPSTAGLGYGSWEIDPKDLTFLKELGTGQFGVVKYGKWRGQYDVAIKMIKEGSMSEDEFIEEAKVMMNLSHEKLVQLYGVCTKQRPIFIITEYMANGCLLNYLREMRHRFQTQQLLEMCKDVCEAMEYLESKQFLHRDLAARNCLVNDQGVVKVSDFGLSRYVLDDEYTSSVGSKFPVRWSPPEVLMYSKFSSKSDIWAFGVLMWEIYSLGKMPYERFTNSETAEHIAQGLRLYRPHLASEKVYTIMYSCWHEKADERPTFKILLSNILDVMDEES

Cc1ccc(C2=Nc3cccnc3S(=O)(=O)c3ccccc32)cc1 [TBPT, 6-(p-tolyl)benzo[f] pyrido[2,3-b][1,4] thiazepine 11,11-dioxide]
remaining binding at 5 µM (BTK; 5 μM): 91% | remaining binding at 10 µM (BTK; 10 μM): 83% | remaining binding at 5 µM (CAMK2B; 5 μM): 100% | remaining binding at 10 µM (CAMK2B; 10 μM): 100% | remaining binding at 5 µM (CDC2L5; 5 μM): 100% | remaining binding at 10 µM (CDC2L5; 10 μM): 97% | remaining binding at 5 µM (CDK4-cyclinD3; 5 μM): 100% | remaining binding at 10 µM (CDK4-cyclinD3; 10 μM): 90% | remaining binding at 5 µM (CSF1R; 5 μM): 93% | remaining binding at 10 µM (CSF1R; 10 μM): 100% | remaining binding at 5 µM (CSK; 5 μM): 96% | remaining binding at 10 µM (CSK; 10 μM): 100% | remaining binding at 5 µM (CSNK2A2; 5 μM): 100% | remaining binding at 10 µM (CSNK2A2; 10 μM): 100% | remaining binding at 5 µM (DDR2; 5 μM): 100% | remaining binding at 10 µM (DDR2; 10 μM): 99% | remaining binding at 5 µM (ERK1; 5 μM): 100% | remaining binding at 10 µM (ERK1; 10 μM): 100% | remaining binding at 5 µM (FAK; 5 μM): 92% | remaining binding at 10 µM (FAK; 10 μM): 92% | remaining binding at 5 µM (FGFR2; 5 μM): 93% | remaining binding at 10 µM (FGFR2; 10 μM): 100% | remaining binding at 5 µM (HIPK4; 5 μM): 91% | remaining binding at 10 µM (HIPK4; 10 μM): 100% | remaining binding at 5 µM (HPK1; 5 μM): 93% | remaining binding at 10 µM (HPK1; 10 μM): 100% | remaining binding at 5 µM (ICK; 5 μM): 100% | remaining binding at 10 µM (ICK; 10 μM): 100% | remaining binding at 5 µM (MAP4K3; 5 μM): 75% | remaining binding at 10 µM (MAP4K3; 10 μM): 91% | remaining binding at 5 µM (MEK3; 5 μM): 100% | remaining binding at 10 µM (MEK3; 10 μM): 100% | remaining binding at 5 µM (MET(Y1235D); 5 μM): 89% | remaining binding at 10 µM (MET(Y1235D); 10 μM): 85% | remaining binding at 5 µM (MKK7; 5 μM): 100% | remaining binding at 10 µM (MKK7; 10 μM): 100% | remaining binding at 5 µM (MKNK2; 5 μM): 100% | remaining binding at 10 µM (MKNK2; 10 μM): 96% | remaining binding at 5 µM (MLK2; 5 μM): 70% | remaining binding at 10 µM (MLK2; 10 μM): 100% | remaining binding at 5 µM (MTOR; 5 μM): 100% | remaining binding at 10 µM (MTOR; 10 μM): 95% | remaining binding at 5 µM (MYO3A; 5 μM): 100% | remaining binding at 10 µM (MYO3A; 10 μM): 90% | remaining binding at 5 µM (NEK5; 5 μM): 100% | remaining binding at 10 µM (NEK5; 10 μM): 100% | remaining binding at 5 µM (NIM1; 5 μM): 90% | remaining binding at 10 µM (NIM1; 10 μM): 78% | remaining binding at 5 µM (PCTK1; 5 μM): 90% | remaining binding at 10 µM (PCTK1; 10 μM): 100% | remaining binding at 5 µM (PIK3CB; 5 μM): 36% | remaining binding at 10 µM (PIK3CB; 10 μM): 100% | remaining binding at 5 µM (PKMYT1; 5 μM): 86% | remaining binding at 10 µM (PKMYT1; 10 μM): 99% | remaining binding at 5 µM (PRKG1; 5 μM): 96% | remaining binding at 10 µM (PRKG1; 10 μM): 100% | remaining binding at 5 µM (RIPK1; 5 μM): 100% | remaining binding at 10 µM (RIPK1; 10 μM): 100% | remaining binding at 5 µM (SIK2; 5 μM): 84% | remaining binding at 10 µM (SIK2; 10 μM): 90% | remaining binding at 5 µM (SLK; 5 μM): 100% | remaining binding at 10 µM (SLK; 10 μM): 86%
